Data published in the kinase profiling compilation of Christmann-Franck et al. (2016).

Assays:
Conditions in all cases: compound 10.0 µM
FGFR1 (human) = FGFR1 (human) (UniProt P11362)
RPS6KB2 (human) = RPS6KB2 (human) (UniProt Q9UBS0)
TSSK1B (human) = TSSK1B (human) (UniProt Q9BXA7)
[1] = system: LYN (human), P07948 [23-43 del]
PRKCB2 (human) = PRKCB2 (human) (UniProt P05771)
PTK2B (human) = PTK2B (human) (UniProt Q14289)
PIM1 (human) = PIM1 (human) (UniProt P11309)
TAOK1 (human) = TAOK1 (human) (UniProt Q7L7X3)
MARK2 (human) = MARK2 (human) (UniProt Q7KZI7)
IRAK4 (human) = IRAK4 (human) (UniProt Q9NWZ3)
ULK3 (human) = ULK3 (human) (UniProt Q6PHR2)
CAMKK1 (human) = CAMKK1 (human) (UniProt Q8N5S9)
PIM2 (human) = PIM2 (human) (UniProt Q9P1W9)
YES1 (human) = YES1 (human) (UniProt P07947)
SRPK3 (human) = SRPK3 (human) (UniProt Q9UPE1)
CDK4 CCND3 (human) = CDK4 CCND3 (human) (UniProt P11802+P30281)
CLK3 (human) = CLK3 (human) (UniProt P49761)
IKBKE (human) = IKBKE (human) (UniProt Q14164)
NEK1 (human) = NEK1 (human) (UniProt Q96PY6)
RPS6KB1 (human) = RPS6KB1 (human) (UniProt P23443)
IRAK1 (human) = IRAK1 (human) (UniProt P51617)
BMX (human) = BMX (human) (UniProt P51813)
ROCK2 (human) = ROCK2 (human) (UniProt O75116)
SRC (human) = SRC (human) (UniProt P12931)
AURKB (human) = AURKB (human) (UniProt Q96GD4)
PDGFRA (human) = PDGFRA (human) (UniProt P16234)
MYO3B (human) = MYO3B (human) (UniProt Q8WXR4)
STK25 (human) = STK25 (human) (UniProt O00506)
TSSK2 (human) = TSSK2 (human) (UniProt Q96PF2)
SRPK1 (human) = SRPK1 (human) (UniProt Q96SB4)
HIPK1 (human) = HIPK1 (human) (UniProt Q86Z02)
MAPKAPK5 (human) = MAPKAPK5 (human) (UniProt Q8IW41)
CDK3 CCNE1 (human) = CDK3 CCNE1 (human) (UniProt P24864+Q00526)
MAP4K5 (human) = MAP4K5 (human) (UniProt Q9Y4K4)
FGFR4 (human) = FGFR4 (human) (UniProt P22455)
STK17A (human) = STK17A (human) (UniProt Q9UEE5)
PRKACG (human) = PRKACG (human) (UniProt P22612)
RPS6KA2 KD1 KD2 (human) = RPS6KA2 KD1 KD2 (human) (UniProt Q15349)
WNK3 (human) = WNK3 (human) (UniProt Q9BYP7)
PLK2 (human) = PLK2 (human) (UniProt Q9NYY3)
RAF1 (human) = RAF1 (human) (UniProt P04049)
STK24 (human) = STK24 (human) (UniProt Q9Y6E0)
ITK (human) = ITK (human) (UniProt Q08881)
CSNK1E (human) = CSNK1E (human) (UniProt P49674)

Sequence of SRC (human) (P12931 whole entry, looked up): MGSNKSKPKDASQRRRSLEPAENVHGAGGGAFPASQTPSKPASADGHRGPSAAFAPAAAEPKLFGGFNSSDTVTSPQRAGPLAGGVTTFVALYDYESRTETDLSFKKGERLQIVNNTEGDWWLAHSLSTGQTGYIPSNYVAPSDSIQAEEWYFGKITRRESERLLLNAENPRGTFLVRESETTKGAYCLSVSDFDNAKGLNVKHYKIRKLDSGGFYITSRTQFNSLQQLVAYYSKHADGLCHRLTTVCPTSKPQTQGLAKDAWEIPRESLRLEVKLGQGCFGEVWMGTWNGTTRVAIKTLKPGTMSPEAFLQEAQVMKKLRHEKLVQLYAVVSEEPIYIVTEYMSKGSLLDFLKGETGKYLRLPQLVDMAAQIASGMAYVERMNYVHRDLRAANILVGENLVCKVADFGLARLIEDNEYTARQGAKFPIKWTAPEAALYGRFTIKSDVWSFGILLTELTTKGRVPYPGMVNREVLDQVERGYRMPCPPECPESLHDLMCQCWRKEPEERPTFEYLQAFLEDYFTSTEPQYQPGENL
Sequence of PIM2 (human) (Q9P1W9 whole entry, looked up): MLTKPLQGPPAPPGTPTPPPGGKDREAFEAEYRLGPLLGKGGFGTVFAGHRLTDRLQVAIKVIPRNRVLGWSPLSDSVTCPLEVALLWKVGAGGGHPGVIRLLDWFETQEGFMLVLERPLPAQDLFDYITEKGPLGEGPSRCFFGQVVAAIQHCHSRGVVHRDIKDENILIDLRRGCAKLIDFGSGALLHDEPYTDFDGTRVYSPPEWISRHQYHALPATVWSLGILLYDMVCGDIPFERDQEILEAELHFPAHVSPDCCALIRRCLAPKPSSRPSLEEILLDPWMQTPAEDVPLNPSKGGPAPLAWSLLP
Sequence of PTK2B (human) (Q14289 whole entry, looked up): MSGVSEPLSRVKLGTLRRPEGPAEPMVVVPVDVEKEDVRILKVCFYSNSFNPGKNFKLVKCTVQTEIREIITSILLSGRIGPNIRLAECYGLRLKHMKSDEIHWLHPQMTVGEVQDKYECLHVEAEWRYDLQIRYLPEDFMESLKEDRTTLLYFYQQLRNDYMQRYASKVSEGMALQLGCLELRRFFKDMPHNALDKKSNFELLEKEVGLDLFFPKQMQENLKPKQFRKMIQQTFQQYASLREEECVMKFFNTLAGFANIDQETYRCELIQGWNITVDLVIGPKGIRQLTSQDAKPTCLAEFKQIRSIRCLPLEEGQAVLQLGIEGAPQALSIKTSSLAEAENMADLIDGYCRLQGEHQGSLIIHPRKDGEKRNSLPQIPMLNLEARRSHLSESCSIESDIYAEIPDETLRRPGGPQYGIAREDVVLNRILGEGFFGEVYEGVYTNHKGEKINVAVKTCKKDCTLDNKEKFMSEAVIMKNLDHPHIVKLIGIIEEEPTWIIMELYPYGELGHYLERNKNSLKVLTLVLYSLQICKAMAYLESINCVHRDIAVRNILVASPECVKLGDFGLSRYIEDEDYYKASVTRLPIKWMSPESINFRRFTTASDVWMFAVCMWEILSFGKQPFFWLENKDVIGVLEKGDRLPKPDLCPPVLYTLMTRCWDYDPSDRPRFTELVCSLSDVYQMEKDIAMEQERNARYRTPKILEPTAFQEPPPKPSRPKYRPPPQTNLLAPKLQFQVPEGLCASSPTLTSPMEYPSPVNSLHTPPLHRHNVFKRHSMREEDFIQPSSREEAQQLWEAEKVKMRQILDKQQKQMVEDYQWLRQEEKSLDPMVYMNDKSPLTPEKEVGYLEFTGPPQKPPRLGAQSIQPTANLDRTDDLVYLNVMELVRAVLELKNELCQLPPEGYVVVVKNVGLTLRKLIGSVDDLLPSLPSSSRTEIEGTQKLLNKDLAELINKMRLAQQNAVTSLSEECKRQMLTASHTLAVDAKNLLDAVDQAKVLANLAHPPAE
Sequence of MAP4K5 (human) (Q9Y4K4 whole entry, looked up): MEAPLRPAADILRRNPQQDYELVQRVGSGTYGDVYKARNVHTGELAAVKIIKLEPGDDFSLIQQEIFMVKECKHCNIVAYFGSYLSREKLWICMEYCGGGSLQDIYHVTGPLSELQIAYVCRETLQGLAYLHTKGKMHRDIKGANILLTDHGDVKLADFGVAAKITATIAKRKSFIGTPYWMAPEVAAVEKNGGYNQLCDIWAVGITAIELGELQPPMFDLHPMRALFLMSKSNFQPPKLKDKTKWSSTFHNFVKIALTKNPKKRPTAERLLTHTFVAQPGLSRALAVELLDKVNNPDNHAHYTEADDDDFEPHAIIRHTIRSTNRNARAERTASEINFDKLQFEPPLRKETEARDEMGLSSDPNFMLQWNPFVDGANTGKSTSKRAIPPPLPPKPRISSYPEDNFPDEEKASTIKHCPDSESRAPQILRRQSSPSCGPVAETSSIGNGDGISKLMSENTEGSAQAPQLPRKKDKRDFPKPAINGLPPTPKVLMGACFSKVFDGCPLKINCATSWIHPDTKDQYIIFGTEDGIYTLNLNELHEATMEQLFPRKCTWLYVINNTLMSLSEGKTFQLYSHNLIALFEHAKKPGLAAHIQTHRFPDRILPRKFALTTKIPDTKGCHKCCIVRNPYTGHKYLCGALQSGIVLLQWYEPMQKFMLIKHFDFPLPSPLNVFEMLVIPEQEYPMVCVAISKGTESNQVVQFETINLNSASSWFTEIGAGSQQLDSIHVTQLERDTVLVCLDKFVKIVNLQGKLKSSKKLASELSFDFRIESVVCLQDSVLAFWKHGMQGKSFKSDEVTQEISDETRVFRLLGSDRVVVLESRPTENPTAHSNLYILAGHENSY
Sequence of TSSK2 (human) (Q96PF2 whole entry, looked up): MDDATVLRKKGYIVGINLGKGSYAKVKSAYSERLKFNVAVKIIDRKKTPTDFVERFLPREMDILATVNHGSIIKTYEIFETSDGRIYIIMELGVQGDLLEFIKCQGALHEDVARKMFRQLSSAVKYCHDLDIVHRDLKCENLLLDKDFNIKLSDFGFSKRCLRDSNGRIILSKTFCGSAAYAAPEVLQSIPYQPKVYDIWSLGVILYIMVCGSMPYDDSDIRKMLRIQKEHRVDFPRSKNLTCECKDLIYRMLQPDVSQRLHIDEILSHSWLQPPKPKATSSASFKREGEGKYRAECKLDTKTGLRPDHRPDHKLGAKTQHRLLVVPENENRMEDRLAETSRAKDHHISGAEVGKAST
Sequence of TSSK1B (human) (Q9BXA7 whole entry, looked up): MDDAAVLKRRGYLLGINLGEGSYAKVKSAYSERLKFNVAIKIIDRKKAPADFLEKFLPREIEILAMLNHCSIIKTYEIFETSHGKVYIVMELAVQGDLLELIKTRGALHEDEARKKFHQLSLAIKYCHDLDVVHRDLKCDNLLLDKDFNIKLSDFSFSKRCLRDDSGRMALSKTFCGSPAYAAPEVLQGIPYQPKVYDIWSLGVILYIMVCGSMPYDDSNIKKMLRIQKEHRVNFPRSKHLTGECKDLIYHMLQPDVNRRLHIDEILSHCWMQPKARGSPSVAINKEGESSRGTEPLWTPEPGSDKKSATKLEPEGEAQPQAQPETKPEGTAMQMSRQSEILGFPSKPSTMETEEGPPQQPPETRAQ
Sequence of RPS6KA2 KD1 KD2 (human) (Q15349 whole entry, looked up): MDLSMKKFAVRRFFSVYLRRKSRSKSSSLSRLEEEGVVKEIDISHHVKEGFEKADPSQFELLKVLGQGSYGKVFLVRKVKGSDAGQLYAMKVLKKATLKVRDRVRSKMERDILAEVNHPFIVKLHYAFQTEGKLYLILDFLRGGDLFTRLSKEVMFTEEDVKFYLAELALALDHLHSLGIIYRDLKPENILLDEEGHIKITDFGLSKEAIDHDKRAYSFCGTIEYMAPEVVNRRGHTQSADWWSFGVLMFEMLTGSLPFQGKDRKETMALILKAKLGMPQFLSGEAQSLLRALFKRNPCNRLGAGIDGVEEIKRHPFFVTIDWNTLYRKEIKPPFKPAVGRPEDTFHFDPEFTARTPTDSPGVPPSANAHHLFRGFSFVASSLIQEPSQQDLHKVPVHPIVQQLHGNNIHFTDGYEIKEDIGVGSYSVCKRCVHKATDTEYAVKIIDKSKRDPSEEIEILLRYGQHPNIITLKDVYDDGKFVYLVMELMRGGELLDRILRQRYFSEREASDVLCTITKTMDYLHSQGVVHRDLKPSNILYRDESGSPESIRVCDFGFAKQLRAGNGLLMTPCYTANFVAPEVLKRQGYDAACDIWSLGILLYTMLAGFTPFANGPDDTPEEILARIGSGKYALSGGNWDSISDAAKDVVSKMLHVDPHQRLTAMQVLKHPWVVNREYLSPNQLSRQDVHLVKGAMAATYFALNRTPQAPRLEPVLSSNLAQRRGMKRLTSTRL
Sequence of CLK3 (human) (P49761 whole entry, looked up): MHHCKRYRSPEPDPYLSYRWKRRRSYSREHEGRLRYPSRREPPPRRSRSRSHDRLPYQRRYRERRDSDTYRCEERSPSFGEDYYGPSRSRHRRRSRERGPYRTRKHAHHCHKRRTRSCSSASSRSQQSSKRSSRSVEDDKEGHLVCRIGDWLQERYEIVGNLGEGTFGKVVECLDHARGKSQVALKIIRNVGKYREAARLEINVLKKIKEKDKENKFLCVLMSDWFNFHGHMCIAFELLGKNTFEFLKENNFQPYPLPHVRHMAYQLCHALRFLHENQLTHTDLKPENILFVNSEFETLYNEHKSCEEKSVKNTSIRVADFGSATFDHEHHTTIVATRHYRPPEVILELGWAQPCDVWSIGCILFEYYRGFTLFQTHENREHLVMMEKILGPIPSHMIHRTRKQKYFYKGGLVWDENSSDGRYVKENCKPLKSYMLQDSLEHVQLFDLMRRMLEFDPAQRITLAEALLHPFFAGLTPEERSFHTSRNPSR
Sequence of PRKACG (human) (P22612 whole entry, looked up): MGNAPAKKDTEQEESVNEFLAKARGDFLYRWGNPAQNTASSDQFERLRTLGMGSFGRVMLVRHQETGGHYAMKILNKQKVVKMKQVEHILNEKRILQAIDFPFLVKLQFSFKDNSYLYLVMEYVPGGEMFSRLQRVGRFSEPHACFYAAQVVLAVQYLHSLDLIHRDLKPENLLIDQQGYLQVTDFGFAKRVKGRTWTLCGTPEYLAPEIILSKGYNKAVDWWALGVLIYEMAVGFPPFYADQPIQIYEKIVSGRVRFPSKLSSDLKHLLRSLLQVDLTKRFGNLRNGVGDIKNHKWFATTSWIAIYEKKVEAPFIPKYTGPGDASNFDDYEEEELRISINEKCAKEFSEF

residual activity (FGFR1 (human)): 84.5%
residual activity (RPS6KB2 (human)): 92%
residual activity (TSSK1B (human)): 102%
residual activity [1]: 92%
residual activity (PRKCB2 (human)): 94%
residual activity (PTK2B (human)): 110%
residual activity (PIM1 (human)): 102%
residual activity (TAOK1 (human)): 91.5%
residual activity (MARK2 (human)): 92.5%
residual activity (IRAK4 (human)): 107%
residual activity (ULK3 (human)): 104%
residual activity (CAMKK1 (human)): 96%
residual activity (PIM2 (human)): 99%
residual activity (YES1 (human)): 78.5%
residual activity (SRPK3 (human)): 98%
residual activity (CDK4 CCND3 (human)): 104%
residual activity (CLK3 (human)): 86%
residual activity (IKBKE (human)): 94.5%
residual activity (NEK1 (human)): 96.5%
residual activity (RPS6KB1 (human)): 97%
residual activity (IRAK1 (human)): 97%
residual activity (BMX (human)): 102%
residual activity (ROCK2 (human)): 98.5%
residual activity (SRC (human)): 83.5%
residual activity (AURKB (human)): 104%
residual activity (PDGFRA (human)): 99.5%
residual activity (MYO3B (human)): 92%
residual activity (STK25 (human)): 93%
residual activity (TSSK2 (human)): 93.5%
residual activity (SRPK1 (human)): 108%
residual activity (HIPK1 (human)): 99%
residual activity (MAPKAPK5 (human)): 86%
residual activity (CDK3 CCNE1 (human)): 105%
residual activity (MAP4K5 (human)): 102%
residual activity (FGFR4 (human)): 89%
residual activity (STK17A (human)): 96.5%
residual activity (PRKACG (human)): 100%
residual activity (RPS6KA2 KD1 KD2 (human)): 92%
residual activity (WNK3 (human)): 95%
residual activity (PLK2 (human)): 93.5%
residual activity (RAF1 (human)): 97%
residual activity (STK24 (human)): 82%
residual activity (ITK (human)): 89.5%
residual activity (CSNK1E (human)): 94.5%
Structure (SMILES): CC[C@H](C)n1cc(C)c2c(C(=O)NCc3c(C)cc(C)[nH]c3=O)cc(-c3ccc(N4CCNCC4)nc3)cc21
